From US20210154161A1, “MODIFIED-RELEASE BUCILLAMINE COMPOSITIONS, KITS, AND METHODS FOR TREATING CYSTINURIA, ARTHRITIS, GOUT, AND RELATED DISORDERS” (ALTIBIO, INC., priority 2017, published 2021)

Legend:
[1] = cited from earlier work
[2] = cited from earlier work; remark: listed apart in the source
[3] = cystinuria patients; cited from earlier work
[4] = cited from earlier work; remark: listed apart in the source
[5] = Short- and long-term stability of bucillamine in Beagle dog plasma supernatant (pre-crashed plasma); type: in vitro ADME
Description: (§1) For the analysis, analytical stock solutions (1.00 mg/mL of the free drug) were prepared in DMSO. Also, three standards for use in the analysis were prepared in each of the following media, as follows: (1) in male Beagle plasma containing sodium heparin as the anticoagulant; (2) in Beagle plasma that had previously been treated with acetonitrile to precipitate and remove plasma proteins (the […] supernatant was diluted with acetonitrile (3:1 acetonitrile:plasma supernatant) to give pre-crashed Beagle plasma supernatant); and (3) in 10× diluted Beagle urine, diluted in water. The term “pre-crashed plasma” refers to plasma supernatant, obtained in the centrifugation step described above.
(§2) Stability Testing: Finally, short-term and long-term stability of bucillamine in Beagle dog plasma, pre-crashed plasma (plasma supernatant), and urine were assessed using two bucillamine concentrations (50 ng/mL or 500 ng/mL) under each of the following two conditions: (1) storage on the bench top for 4 hours and (2) frozen at −80° C. for up to one month. Samples were considered stable if their concentrations were within ±20% of nominal. These samples met acceptable criteria for stability and results are presented below, in Tables 5, 6, and 7, showing the % bucillamine remaining in Beagle dog plasma (Table 5), plasma supernatant (Table 6), and urine (Table 7).

[6] = Short- and long-term stability of bucillamine in Beagle dog plasma; type: in vitro ADME
Description: as §2

[7] = Example 3: cystine stone formation in cystinuria patients, about 1 week; type: in vivo, human; details: Days 2-8, enterically-coated bucillamine oral 100 mg x 8 or x 12 times/day
Description: This Example describes a study to confirm the improved efficacy of reducing cystine stone formation in cystinuria patients who develop at least one stone per week using standard Thiola® dosing. Study Design: […] The patients are dosed as follows: Day 1: No treatment; an X-ray is taken of the kidney and bladder. Days 2-8: To simulate extended release, enterically-coated bucillamine is orally administered at either 100 mg x 8 times/day (i.e., every three hours) or 100 mg x 12 times/day (i.e., every two hours). A simple enteric coating is used that avoids release in the stomach. Also, 24 hour urine cystine capacity is measured, that is, all urine over a 24-hour period, starting from the time of the first dose, is collected and used to measure urinary cystine concentration. Day 8: X-ray examination of Day 1 is repeated.

[8] = majority of patients; 1,800 mg bucillamine over 7 days; 72 hours post-dose; without rescue drug; cited from earlier work
[9] = Total bucillamine plasma concentration after oral or intraduodenal dosing regimens; type: in vivo, male Beagle dogs; details: n=3 dogs
Description: (§3) The objective of this study was to evaluate total and free plasma bucillamine, and urinary bucillamine, in male Beagle dogs following oral and intraduodenal administration of bucillamine, according to various dose regimens, to determine whether different regimens, simulating modified release in accordance with the present invention, would improve drug pharmacokinetics. Specifically, bucillamine formulations were administered to deliver 30 mg/kg per dog via single or multiple doses divided over a 12-hour period; and blood and urine samples then collected at different times post-dose.
(§4) Bucillamine formulations were administered to provide 30 mg/kg per dog according to five different dosage regimens (Leg 1, Leg 2, Leg 3, Leg 4, and Leg 5), as set forth in the table below. Leg 2, Leg 3, and Leg 4 (also referred to as Q6H, Q3H, and Q2H, respectively) were designed to simulate modified-release formulations, in accordance with certain embodiments of the present invention. Following administration, blood and urine samples were collected at the time points, or over the time intervals, also as indicated below.
(§5) Preparation of Dosing Formulations: Capsules for Legs 1-5 were prepared and filled on the day of dosing, as follows. For Legs 1, 2, and 5, bucillamine was dry mixed with avicel and mannitol to make a 40:30:30 mixture of bucillamine to avicel to mannitol, respectively; for study Legs 3 and 4, a 20:40:40 mixture of bucillamine to avicel to mannitol, respectively, was prepared. The dry mixes were custom filled with the appropriate amount of powder to deliver the specified doses to each dog based, on their respective body weights.
(§6) Animal Dosing and Sample Collection: This non-clinical study followed established practices and standard operating procedures of Absorption Systems and Absorption Systems Inc., as well as the study protocol. Study groups each included three dogs. The dogs were housed one per cage. For Legs 1-4, the dogs were fasted for at least six hours prior to each administration of the formulation. For Legs 1-4, food was given approximately ten hours post initial dosing. Animals had free access to water throughout the study. For Leg 5, the dogs were fasted for at least sixteen hours prior to each administration of the formulation. For Leg 5, food was given approximately eight hours post initial dosing. Animals had free access to water throughout the study. Additionally, each dog received a 60 mL subcutaneous injection of saline (a 30 mL injection, into each two different sites) approximately 30 minutes prior to dosing, for hydration.
(§7) Intraduodenal (ID) administration: Animals were anesthetized by a slow IV infusion of Propofol (6-10 mg/kg), or with an intramuscular injection of a cocktail containing ketamine (approximately 10-20 mg/kg), diazepam (3 mg/kg), and acepromazine (0.05 mg/kg) given IM about 5-10 minutes before intubation. Once animals were confirmed adequately anesthetized, they were intubated and maintained using isoflurane (approximately 1-5% in oxygen 1 to 4 L/min) as necessary until dosing was complete. Formulations were administered into the proximal duodenum via endoscopic guidance to verify the dosing site. The endoscope first was maneuvered into the pyloric sphincter with camera visualization of the proximal duodenum. Once there was confirmation that the endoscope was placed between the pylorus and proximal duodenum, the test article was delivered to the proximal duodenum followed by a 5 mL flush. […]

[10] = Short- and long-term stability of bucillamine in Beagle dog urine; type: in vitro ADME
Description: as §1
Samples were considered stable if their concentrations were within ±20% of nominal. These samples met acceptable criteria for stability and results are presented below, in Tables 5, 6, and 7, showing the % bucillamine remaining in Beagle dog plasma (Table 5), plasma supernatant (Table 6), and urine (Table 7).

[11] = Example 5: urine cystine in cystinuria dogs, simulated extended-release bucillamine; type: in vivo; details: enterically-coated bucillamine 8 times/day, same total daily dosage
Description: This Example describes a study to confirm the feasibility of reducing cystine levels in the urine of cystinuria dogs receiving more frequent and lower doses of bucillamine, in a dosing schedule designed to simulate the extended release formulations of the present invention, compared to urine cystine levels in cystinuria dogs receiving non-coated bucillamine. Study Design: Subject dogs are dosed as follows: Day 1: […] Day 2: Repeat Day 1 Day 3: No treatment Day 4: No treatment Day 5: To simulate extended-release, enterically-coated bucillamine is orally administered at lower dose, 8 times/day (i.e., every three hours), to provide a total daily dosage equal to that used in Days 1 and 2. A simple enteric coating is used that avoids release in the stomach. Also, 24 hour urine cystine capacity is measured, that is, all urine over a 24-hour period, starting from the time of the first dose, is collected and used to measure urinary cystine concentration. Day 6: Repeat Day 5

[12] = Bucillamine urinary recovery after oral or intraduodenal dosing regimens; type: in vivo, male Beagle dogs; details: for % of the dose (unchanged drug) found in urine, on average: n=3 dogs
Description: as §3, §4, §5, §6
as §7, with “flush. Upon completion of the dosing, the animals were taken off the isoflurane and allowed to recover from anesthesia. Time points began upon completion of the entire dose procedure. Following each blood sampling time point, 15 mL of water was given to each dog via syringe. Approximately 30 minutes prior to the 0 hour blood collection, each dog received a subcutaneous injection of 60 mL of saline (a 30 mL injection into each of two different sites) for hydration.” for “flush.”

[13] = Free bucillamine plasma concentration after oral or intraduodenal dosing regimens; type: in vivo, male Beagle dogs; details: for maximum plasma concentrations of free bucillamine (average): n=3 dogs
Description: as §3, §4, §5, §6
as §7, with “flush. Upon completion of the dosing, the animals were taken off the isoflurane and allowed to recover from anesthesia. Time points began upon completion of the entire dose procedure. Following each blood sampling time point, 15 mL of water was given to each dog via syringe. Approximately 30 minutes prior to the 0 hour blood collection, each dog received a subcutaneous injection of 60 mL of saline (a 30 mL injection into each of two different sites) for hydration.” for “flush.”

[14] = 50 ng/mL (low), -80 C freezer for 1 week
[15] = 50 ng/mL (low), bench top (RT) for 4 hours
[16] = 500 ng/mL (high), -80 C freezer for 1 week
[17] = 500 ng/mL (high), bench top (RT) for 4 hours
[18] = Leg 1 (Q12H): PO, single 30 mg/kg dose
[19] = Leg 2: PO 30 mg/kg as two 15 mg/kg doses at 0 and 6 h
[20] = Leg 3 (Q3H): PO 30 mg/kg as four 7.5 mg/kg doses at 0, 3, 6, 9 h
[21] = Leg 4: PO 30 mg/kg as six 5 mg/kg doses at 0, 2, 4, 6, 8, 10 h
[22] = Leg 5: ID, single 30 mg/kg dose

Compound: CC(S)C(=O)NCC(=O)O (stereo not drawn) [tiopronin, alpha-mercaptopropionylglycine]
- cases/patients in which the drug is discontinued ([1]; due to adverse reactions, need for frequent dosing, poor efficacy): about 30%
- cystinuria patients failed by the medication (continue forming stones) ([1]; human, in vivo): 85%
- patients who achieve and maintain therapeutic success ([1]; human, in vivo): 15%
- period of effectiveness in reducing cystine urine levels ([1]; human, in vivo): 2 to 4 h
- time of primary urine excretion wave after oral administration ([2]; immediate-release tiopronin, oral): 3 to 4 h
- time after administration at which urine excretion of free tiopronin and mixed-sulfide tiopronin mostly occurs ([2]; in vivo): 2 to 4 h
- free tiopronin excreted in urine within 2 hours of administration ([2]; within 2 hours of Thiola administration): ≤ 95%

Compound: CC(C)(S)[C@@H](N)C(=O)O [D-penicillamine]
- patients with severe side effects / who cannot tolerate the drug [3]: 50-70%
- solubility of the di-sulfide complex formed, relative to cystine [4]: 50 times

Compound: CC(C)(S)C(=O)N[C@@H](CS)C(=O)O [bucillamine, N-(2-mercapto-2-methylpropionyl)-L-cysteine]
- % Bucillamine Remaining in Beagle Dog Plasma Supernatant [5, 14]: 94.3%
- % Bucillamine Remaining in Beagle Dog Plasma Supernatant ([5]; 50 ng/mL (low), -80 C freezer for 2 week): 99.1%
- % Bucillamine Remaining in Beagle Dog Plasma Supernatant ([5]; 50 ng/mL (low), -80 C freezer for 4 week): 107%
- % Bucillamine Remaining in Beagle Dog Plasma Supernatant [5, 15]: 105%
- % Bucillamine Remaining in Beagle Dog Plasma Supernatant [5, 16]: 97.2%
- % Bucillamine Remaining in Beagle Dog Plasma Supernatant ([5]; 500 ng/mL (high), -80 C freezer for 2 week): 110%
- % Bucillamine Remaining in Beagle Dog Plasma Supernatant ([5]; 500 ng/mL (high), -80 C freezer for 4 week): 119%
- % Bucillamine Remaining in Beagle Dog Plasma Supernatant [5, 17]: 117%
- % Bucillamine Remaining in Beagle Dog Plasma [6, 14]: 114%
- % Bucillamine Remaining in Beagle Dog Plasma ([6]; 50 ng/mL (low), -80 C freezer for 2 weeks): 108%
- % Bucillamine Remaining in Beagle Dog Plasma ([6]; 50 ng/mL (low), -80 C freezer for 4 weeks): 114%
- % Bucillamine Remaining in Beagle Dog Plasma [6, 15]: 110%
- % Bucillamine Remaining in Beagle Dog Plasma [6, 16]: 96.4%
- % Bucillamine Remaining in Beagle Dog Plasma ([6]; 500 ng/mL (high), -80 C freezer for 2 weeks): 97.3%
- % Bucillamine Remaining in Beagle Dog Plasma ([6]; 500 ng/mL (high), -80 C freezer for 4 weeks): 107%
- % Bucillamine Remaining in Beagle Dog Plasma [6, 17]: 96.9%
- additional cystine stones on X-ray of Day 8 compared to Day 1 [7]: no additional stones
- reduction in target joint pain scores from baseline [8]: at least 50%
- maximum plasma concentrations of total bucillamine (average) [9, 18]: 24400 ± 8253 ng/mL
- maximum plasma concentrations of total bucillamine (average) [9, 19]: 33533 ± 2139 ng/mL
- maximum plasma concentrations of total bucillamine (average) [9, 20]: 25133 ± 3500 ng/mL
- maximum plasma concentrations of total bucillamine (average) [9, 21]: 23800 ± 819 ng/mL
- maximum plasma concentrations of total bucillamine (average) ([9]; Leg 5 (Q12H): ID, single 30 mg/kg dose): 19940 ± 11015 ng/mL
- % Bucillamine Remaining in Beagle Dog Urine ([10]; High (2500 ng/mL), -80 C freezer for 1 week): 102%
- % Bucillamine Remaining in Beagle Dog Urine ([10]; High (2500 ng/mL), -80 C freezer for 2 week): 101%
- % Bucillamine Remaining in Beagle Dog Urine ([10]; High (2500 ng/mL), -80 C freezer for 4 week): 96.3%
- % Bucillamine Remaining in Beagle Dog Urine ([10]; High (2500 ng/mL), bench top (RT) for 4 hours): 102%
- % Bucillamine Remaining in Beagle Dog Urine ([10]; Low (250 ng/mL), -80 C freezer for 1 week): 97.7%
- % Bucillamine Remaining in Beagle Dog Urine ([10]; Low (250 ng/mL), -80 C freezer for 2 week): 90.9%
- % Bucillamine Remaining in Beagle Dog Urine ([10]; Low (250 ng/mL), -80 C freezer for 4 week): 88.9%
- % Bucillamine Remaining in Beagle Dog Urine ([10]; Low (250 ng/mL), bench top (RT) for 4 hours): 93.7%
- urine cystine levels over Days 5-6 compared with Days 1-2 of uncoated (immediate-release) dosing [11]: consistently lower
- % of the dose (unchanged drug) found in urine, on average ([12]; Leg 1: PO, single 30 mg/kg dose): 57.3±25.8%
- % of the dose (unchanged drug) found in urine, on average [12, 19]: 54.5±6.63%
- % of the dose (unchanged drug) found in urine, on average [12, 20]: 25.8±14.0%
- % of the dose (unchanged drug) found in urine, on average [12, 21]: 16.1±5.65%
- % of the dose (unchanged drug) found in urine, on average [12, 22]: 20.2±7.51%
- share of the drug recovered in urine excreted within the first 4 hours ([12]; Q12H schedule, PO single 30 mg/kg dose, FIG. 22, n=2 dogs): 80%
- time at which maximum plasma concentrations of free bucillamine were observed [13, 18]: 2 hours post dosing
- maximum plasma concentrations of free bucillamine (average) [13, 18]: 2437 ± 728 ng/mL
- maximum plasma concentrations of free bucillamine (average) [13, 19]: 3957 ± 1226 ng/mL
- maximum plasma concentrations of free bucillamine (average) [13, 20]: 4327 ± 1127 ng/mL
- maximum plasma concentrations of free bucillamine (average) [13, 21]: 1820 ± 471 ng/mL
- maximum plasma concentrations of free bucillamine (average) [13, 22]: 1187 ± 656 ng/mL
